Test results published in US20220041616A1, “SPIRO COMPOUND AND MEDICAL USES THEREOF” (The National Institutes of Pharmaceutical R&D Co., Ltd., priority 2018, published 2022).

These compounds were tested against T1, ACC1 (Homo sapiens, UniProt Q13085) (assay: In vitro inhibition of ACC1 activity, ADP-Glo Kinase Analysis). Conditions: 1 nM ACC1, 10 μM acetyl-CoA, 20 μM ATP.
T1 construct: purchased BPS bioscience
Assay type: biochemical
From the text: ADP-Glo™ Kinase Analysis Kit (Promega) is used for the in vitro analysis of the inhibitory effect of the present compound on ACC1 or ACC2. ADP-Glo™ Kinase Analysis is a kinase detection analysis of luminescence method. ADP is produced in the process of catalyzing the substrate by ACC. ADP is converted into ATP which is then converted into light by Ultra-Glo™ luciferase. ADP is quantified by detecting the light signal, thus the enzyme activity can be measured by quantification of the ADP amount produced during the enzyme reaction. The analysis is carried out in two steps: in the first step, after the kinase reaction, a portion of ADP-Glo™ reagent equal in volume to the kinase reaction system is added to terminate the reaction and consume the remaining ATP; in the second step, a kinase detection reagent is added, which not only converts ADP into ATP, but also uses a coupled luciferase/luciferin reaction to detect newly synthesized ATP.
a. 10 mM compound stock solution (the present compound was dissolved in 100% DMSO to prepare the 10 mM stock solution) was diluted 50-fold to 200 μM with 100% DMSO, and then diluted in equal proportions (1:3) in a 96-well dilution plate (249944, Nunc). The gradient concentrations of the compound were 200 μM, 66.67 μM, 22.22 μM, 7.41 μM, 2.47 μM, 0.823 μM, 0.274 μM, 0.0914 μM, 0.0305 μM, 0.0102 μM, 0.00339 μM and 0.00113 μM.
b. 4.5 μL ACC1 working solution (BPS bioscience) (2.22 nM) was added to each well of a 384-well test plate (6007290, Perkin Elmer).
c. 0.5 μL of the serially diluted compound (prepared in step a) was added to each well of the 384-well test plate, which was centrifuged at 1000 rpm for 1 min and then incubated at room temperature for 15 min. The reaction system with compound GS-0976 at a final concentration of 0.1 μM was used as positive control; the reaction system with no compound but DMSO at a final concentration of 5% was used as negative control.
d. In the 384-well test plate (prepared in step c), 5 μL of the substrate working solution was added to each well to start the enzymatic reaction. The plate was centrifuged at 1000 rpm for 1 min and then incubated at room temperature for 30 min. The final concentration of each component in the ACC1 reaction system: 1 nM ACC1, 10 μM acetyl-CoA, 30 mM NaHCO3, and 20 μM ATP. The final concentration of each component in the ACC2 reaction system: 1.1 nM ACC2, 20 μM acetyl-CoA, 20 mM NaHCO3, and 15 μM ATP. Final concentrations of test compounds: 10 μM, 3.33 μM, 1.11 μM, 0.37 μM, 0.123 μM, 0.0411 μM, 0.0137 μM, 0.00457 μM, 0.00152 μM, 0.00051 μM, 0.00017 μM and 0.000056 μM. The final concentration of DMSO was 5% (v/v).
e. 10 μL of ADP-Glo reagent was added to each well of the 384-well test plate (prepared in step d), which was centrifuged at 1000 rpm for 1 min and then incubated at room temperature for 40 min.
f. 20 μL of kinase detection reagent was added to each well of the 384-well test plate (prepared in step e), which was centrifuged at 1000 rpm for 1 min and then incubated at room temperature for 40 min.
g. The chemiluminescence signal was detected with Perkin Elmer EnVision 2104.
ACC1 working solution and substrate working solution were both prepared with 1× kinase reaction buffer. The buffer was consisting of 50 mM HEPES buffer, 2 mM magnesium chloride, 0.01% BRIJ-35, 2 mM potassium citrate, 50 μg/mL BSA and 2 mM DTT.
The average value of the positive and negative control well and the standard deviation were calculated. The inhibition percentage was calculated according to the following formula: 100×[1−(compound−average value of positive control)/(average value of negative control-average value of positive control)].
IC50 of the compound was obtained using GraphPad Prism 6 software according to the following nonlinear fitting formula:
Y=Bottom+(Top−Bottom)/(1+10^((Log IC50−X)×Hillslope)), […]

| IC50 | Compound |
| --- | --- |
| 100 to 500 nM | Cc1c(-c2ncco2)sc2c1C(=O)C1(CCC(C(=O)O)C1)C(=O)N2CC(OC1CCOCC1)c1ccccc1 (mixture of isomers) [Compound 3, 3′-methyl-2′-(oxazol-2-yl)-4′,6′-dioxo-7′-(2-phenyl-2-((tetrahydro-2H-pyran-4-yl)oxy)ethyl)-6′,7′-dihydro-4′H-spiro[cyclopentane-1,5′-thieno[2,3-b]pyridine]-3-carboxylic Acid] |
| 100 to 500 nM | Cc1c(-c2ncco2)sc2c1C(=O)C1(CCC(C)(C(=O)O)C1)C(=O)N2CC(OC1CCOCC1)c1ccccc1 (mixture of isomers) [Compound 4, 3,3′-dimethyl-2′-(oxazol-2-yl)-4′,6′-dioxo-7′-(2-phenyl-2-((tetrahydro-2H-pyran-4-yl)oxy)ethyl)-6′,7′-dihydro-4′H-spiro[cyclopentane-1,5′-thieno[2,3-b]pyridine]-3-carboxylic Acid] |
| < 10 nM | COc1ccccc1C(CN1C(=O)C2(CCC(C(=O)O)C2)C(=O)c2c1sc(-c1ncco1)c2C)OC1CCOCC1 (mixture of isomers) [Compound 5, 7′-(2-(2-methoxyphenyl)-2-((tetrahydro-2H-pyran-4-yl)oxy)ethyl)-3′-methyl-2′-(oxazol-2-yl)-4′,6′-dioxo-6′,7′-dihydro-4′H-spiro[cyclopentane-1,5′-thieno[2,3-b]pyridine]-3-carboxylic Acid] |
| 10 to 100 nM | COc1ccccc1C(CN1C(=O)C2(CCC(C(=O)O)C2)C(=O)c2c1sc(-c1ncco1)c2C)OC1CCOCC1 (mixture of isomers) [Compound 5e, 7′-(2-(2-methoxyphenyl)-2-((tetrahydro-2H-pyran-4-yl)oxy)ethyl)-3′-methyl-2′-(oxazol-2-yl)-4′,6′-dioxo-6′,7′-dihydro-4′H-spiro[cyclopentane-1,5′-thieno[2,3-b]pyridine]-3-carboxylic Acid] |
| 100 to 500 nM | Cc1c(-c2ncco2)sc2c1C(=O)C1(CCC(C(=O)O)CC1)C(=O)N2CC(OC1CCOCC1)c1ccccc1 (mixture of isomers) [Compound 6, 3′-methyl-2′-(oxazol-2-yl)-4′,6′-dioxo-7′-(2-phenyl-2-((tetrahydro-2H-pyran-4-yl)oxy)ethyl)-6′,7′-dihydro-4′H-spiro[cyclohexane-1,5′-thieno[2,3-b]pyridine]-4-carboxylic acid] |
| > 500 nM | Cc1c(-c2ncco2)sc2c1C(=O)C1(CCC1)C(=O)N2CC(OC1CCOCC1)c1ccccc1 (racemic) [Compound 1, 3′-methyl-2′-(oxazol-2-yl)-7′-(2-phenyl-2-((tetrahydro-2H-pyran-4-yl)oxy)ethyl)-4′H-spiro[cyclobutane-1,5′-thieno[2,3-b]pyridine]-4′,6′(7′H)-dione] |
| 10 to 100 nM | COc1ccccc1C(CN1C(=O)C2(CCC(C(=O)O)C2)C(=O)c2c1sc(-c1ncco1)c2C)OC1CCOCC1 (single isomer, unassigned) [Compound 5a, 7′-(2-(2-methoxyphenyl)-2-((tetrahydro-2H-pyran-4-yl)oxy)ethyl)-3′-methyl-2′-(oxazol-2-yl)-4′,6′-dioxo-6′,7′-dihydro-4′H-spiro[cyclopentane-1,5′-thieno[2,3-b]pyridine]-3-carboxylic Acid] |
| < 10 nM | COc1ccccc1C(CN1C(=O)C2(CCC(C(=O)O)C2)C(=O)c2c1sc(-c1ncco1)c2C)OC1CCOCC1 (single isomer, unassigned) [Compound 5c, 7′-(2-(2-methoxyphenyl)-2-((tetrahydro-2H-pyran-4-yl)oxy)ethyl)-3′-methyl-2′-(oxazol-2-yl)-4′,6′-dioxo-6′,7′-dihydro-4′H-spiro[cyclopentane-1,5′-thieno[2,3-b]pyridine]-3-carboxylic Acid] |
| < 10 nM | COc1ccccc1C(CN1C(=O)C2(CCC(C(=O)O)C2)C(=O)c2c1sc(-c1ncco1)c2C)OC1CCOCC1 (single isomer, unassigned) [Compound 5d, 7′-(2-(2-methoxyphenyl)-2-((tetrahydro-2H-pyran-4-yl)oxy)ethyl)-3′-methyl-2′-(oxazol-2-yl)-4′,6′-dioxo-6′,7′-dihydro-4′H-spiro[cyclopentane-1,5′-thieno[2,3-b]pyridine]-3-carboxylic Acid] |
| 10 to 100 nM | COc1ccccc1C(CN1C(=O)C2(CC(C(=O)O)C2)C(=O)c2c1sc(-c1ncco1)c2C)OC1CCOCC1 (single isomer, unassigned) [Compound 8a, 7′-(2-(2-methoxyphenyl)-2-((tetrahydro-2H-pyran-4-yl)oxy)ethyl)-3′-methyl-2′-(oxazol-2-yl)-4′,6′-dioxo-6′,7′-dihydro-4′H-spiro[cyclobutane-1,5′-thieno[2,3-b]pyridine]-3-carboxylic Acid] |
| 100 to 500 nM | COc1ccccc1C(CN1C(=O)C2(CC(C(=O)O)C2)C(=O)c2c1sc(-c1ncco1)c2C)OC1CCOCC1 (single isomer, unassigned) [Compound 8b, 7′-(2-(2-methoxyphenyl)-2-((tetrahydro-2H-pyran-4-yl)oxy)ethyl)-3′-methyl-2′-(oxazol-2-yl)-4′,6′-dioxo-6′,7′-dihydro-4′H-spiro[cyclobutane-1,5′-thieno[2,3-b]pyridine]-3-carboxylic Acid] |
| > 500 nM | Cc1c(-c2ncco2)sc2c1C(=O)C1(CCCC1)C(=O)N2CC(OC1CCOCC1)c1ccccc1 (centres unmarked) [Compound 2, 3′-methyl-2′-(oxazol-2-yl)-7′-(2-phenyl-2-((tetrahydro-2H-pyran-4-yl)oxy)ethyl)-4′H-spiro[cyclopentane-1,5′-thieno[2,3-b]pyridine]-4′,6′(7′H)-dione] |
| < 10 nM | CNC(=O)[C@H]1C[C@@]2(C1)C(=O)c1c(sc(-c3ncco3)c1C)N(C[C@H](OC1CCOCC1)c1ccccc1OC)C2=O [Compound 9] |
| < 10 nM | COc1ccccc1[C@H](CN1c2sc(-c3ncco3)c(C)c2C(=O)[C@]2(C[C@H](C(=O)NCC(=O)O)C2)C1=O)OC1CCOCC1 [Compound 10, ((1s,3S)-7′-((R)-2-(2-methoxyphenyl)-2-((tetrahydro-2H-pyran-4-yl)oxy)ethyl)-3′-methyl-2′-(oxazol-2-yl)-4′,6′-dioxo-6′,7′-dihydro-4′H-spiro[cyclobutane-1,5′-thieno[2,3-b]pyridine]-3-carbonyl)glycine] |
| < 10 nM | COC(=O)CNC(=O)[C@H]1C[C@@]2(C1)C(=O)c1c(sc(-c3ncco3)c1C)N(C[C@H](OC1CCOCC1)c1ccccc1OC)C2=O [Compound 10-1, methyl ((1s,3S)-7′-((R)-2-(2-methoxyphenyl)-2-((tetrahydro-2H-pyran-4-yl)oxy)ethyl)-3′-methyl-2′-(oxazol-2-yl)-4′,6′-dioxo-6′,7′-dihydro-4′H-spiro[cyclobutane-1,5′-thieno[2,3-b]pyridine]-3-carbonyl)glycinate] |

| Compound | IC50 |
| --- | --- |
| 7′-(2-(2-methoxyphenyl)-2-((tetrahydro-2H-pyran-4-yl)oxy)ethyl)-3′-methyl-2′-(oxazol-2-yl)-4′,6′-dioxo-6′,7′-dihydro-4′H-spiro[cyclohexane-1,5′-thieno[2,3-b]pyridine]-3-carboxylic Acid [Compound 7a] | > 500 nM |
| 7′-(2-(2-methoxyphenyl)-2-((tetrahydro-2H-pyran-4-yl)oxy)ethyl)-3′-methyl-2′-(oxazol-2-yl)-4′,6′-dioxo-6′,7′-dihydro-4′H-spiro[cyclohexane-1,5′-thieno[2,3-b]pyridine]-3-carboxylic Acid [Compound 7b] | 100 to 500 nM |
